In patent US20080176936A1, “Classes of Compounds that Interact with Integrins” (priority 2005, published 2008):

Tests used:
αllbβ3 integrin = molecular target: T1, αllbβ3 integrin (Homo sapiens, UniProt P05106+P08514); assay: ELISA: inhibition of binding of αllbβ3 integrin membrane preparation to coated extracellular matrix protein; details: human platelet membrane preparation
T1 construct: Human platelet membrane preparations were used as a source of αllbβ3 integrin; from tissue; host or cells: human platelets (membrane preparation)
T1 sequence (P08514 32-887 limits assumed): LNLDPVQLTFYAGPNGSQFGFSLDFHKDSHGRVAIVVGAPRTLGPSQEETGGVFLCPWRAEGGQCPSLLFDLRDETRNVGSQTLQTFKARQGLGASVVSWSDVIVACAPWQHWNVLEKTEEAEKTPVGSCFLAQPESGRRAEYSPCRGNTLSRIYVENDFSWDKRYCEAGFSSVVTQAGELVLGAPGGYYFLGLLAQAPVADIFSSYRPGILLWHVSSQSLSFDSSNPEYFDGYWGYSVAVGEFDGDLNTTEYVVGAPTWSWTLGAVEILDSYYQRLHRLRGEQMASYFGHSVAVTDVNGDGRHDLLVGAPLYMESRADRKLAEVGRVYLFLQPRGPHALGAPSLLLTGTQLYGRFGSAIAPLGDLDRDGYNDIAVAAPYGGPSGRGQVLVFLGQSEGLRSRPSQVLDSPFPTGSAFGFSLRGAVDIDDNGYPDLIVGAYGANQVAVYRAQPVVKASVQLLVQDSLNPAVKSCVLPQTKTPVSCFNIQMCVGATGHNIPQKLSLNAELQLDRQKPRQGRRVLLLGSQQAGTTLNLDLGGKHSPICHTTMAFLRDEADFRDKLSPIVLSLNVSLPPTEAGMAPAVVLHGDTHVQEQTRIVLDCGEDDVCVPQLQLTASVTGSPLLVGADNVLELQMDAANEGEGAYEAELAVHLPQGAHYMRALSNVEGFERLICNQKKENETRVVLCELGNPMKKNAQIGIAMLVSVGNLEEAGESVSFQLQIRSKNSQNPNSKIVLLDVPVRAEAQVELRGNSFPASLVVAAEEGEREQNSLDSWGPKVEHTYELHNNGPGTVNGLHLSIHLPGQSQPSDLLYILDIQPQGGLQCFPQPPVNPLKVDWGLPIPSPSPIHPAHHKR
T1 sequence (P08514 891-1039 partner limits assumed): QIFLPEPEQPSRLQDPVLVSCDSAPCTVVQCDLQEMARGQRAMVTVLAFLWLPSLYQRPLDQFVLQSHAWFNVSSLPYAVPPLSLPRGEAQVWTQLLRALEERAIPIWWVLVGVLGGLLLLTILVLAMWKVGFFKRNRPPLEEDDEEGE
T1 sequence (P05106 27-788): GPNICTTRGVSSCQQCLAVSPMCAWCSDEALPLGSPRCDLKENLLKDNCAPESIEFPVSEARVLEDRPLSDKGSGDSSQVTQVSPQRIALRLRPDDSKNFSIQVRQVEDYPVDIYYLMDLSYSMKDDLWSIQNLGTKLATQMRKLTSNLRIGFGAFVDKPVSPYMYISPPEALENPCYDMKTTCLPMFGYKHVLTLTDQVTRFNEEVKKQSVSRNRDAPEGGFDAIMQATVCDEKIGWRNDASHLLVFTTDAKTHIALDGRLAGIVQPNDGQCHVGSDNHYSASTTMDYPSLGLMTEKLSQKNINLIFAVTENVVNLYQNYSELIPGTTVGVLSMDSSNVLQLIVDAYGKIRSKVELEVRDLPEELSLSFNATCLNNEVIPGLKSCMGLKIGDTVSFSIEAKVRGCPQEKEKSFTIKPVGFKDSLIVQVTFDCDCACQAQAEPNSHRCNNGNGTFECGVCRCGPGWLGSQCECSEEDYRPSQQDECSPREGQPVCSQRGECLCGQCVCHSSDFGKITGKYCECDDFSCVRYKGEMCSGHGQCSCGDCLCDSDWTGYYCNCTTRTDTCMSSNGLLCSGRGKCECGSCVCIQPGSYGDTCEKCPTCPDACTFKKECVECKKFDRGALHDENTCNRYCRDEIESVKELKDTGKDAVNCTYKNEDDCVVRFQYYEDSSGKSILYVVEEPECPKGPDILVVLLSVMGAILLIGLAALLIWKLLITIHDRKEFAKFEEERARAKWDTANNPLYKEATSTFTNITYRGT
Method: (§1) An ELISA assay based on the published method of Bethert et al., 2000, J Biol Chem 275, 33308-23, was employed.
(§2) Briefly, appropriate microtitre plates were coated with either Fibrinogen or Vitronectin (10 μg/well). These extracellular matrix proteins contain the RGD amino acid sequence that is recognized by αllbβ3 integrin. Human platelet membrane preparations were used as a source of αllbβ3 integrin and the cell line WM-115 was used as a source of αVβ3 integrin. Inhibition of the binding of αllbβ3 integrin containing membrane preparations to the extracellular matrix protein was determined by pre-incubating the platelet membrane preparation with test or control compounds. The binding of the αllbβ3 integrin containing membrane was the quantitated by using a rabbit anti-integrinβ3 antibody, a horse radish peroxidase coupled second antibody and a standard colorimetric detection system.

αVβ3 integrin = molecular target: T2, αVβ3 integrin (Homo sapiens, UniProt P05106+P06756); assay: ELISA: inhibition of binding of αVβ3 integrin (source WM-115 cell line) to coated extracellular matrix protein; details: WM-115 cell line as integrin source
T2 construct: the cell line WM-115 was used as a source of αVβ3 integrin; endogenous in cells; host or cells: WM-115 cell line
T2 sequence (P06756 31-889 limits assumed): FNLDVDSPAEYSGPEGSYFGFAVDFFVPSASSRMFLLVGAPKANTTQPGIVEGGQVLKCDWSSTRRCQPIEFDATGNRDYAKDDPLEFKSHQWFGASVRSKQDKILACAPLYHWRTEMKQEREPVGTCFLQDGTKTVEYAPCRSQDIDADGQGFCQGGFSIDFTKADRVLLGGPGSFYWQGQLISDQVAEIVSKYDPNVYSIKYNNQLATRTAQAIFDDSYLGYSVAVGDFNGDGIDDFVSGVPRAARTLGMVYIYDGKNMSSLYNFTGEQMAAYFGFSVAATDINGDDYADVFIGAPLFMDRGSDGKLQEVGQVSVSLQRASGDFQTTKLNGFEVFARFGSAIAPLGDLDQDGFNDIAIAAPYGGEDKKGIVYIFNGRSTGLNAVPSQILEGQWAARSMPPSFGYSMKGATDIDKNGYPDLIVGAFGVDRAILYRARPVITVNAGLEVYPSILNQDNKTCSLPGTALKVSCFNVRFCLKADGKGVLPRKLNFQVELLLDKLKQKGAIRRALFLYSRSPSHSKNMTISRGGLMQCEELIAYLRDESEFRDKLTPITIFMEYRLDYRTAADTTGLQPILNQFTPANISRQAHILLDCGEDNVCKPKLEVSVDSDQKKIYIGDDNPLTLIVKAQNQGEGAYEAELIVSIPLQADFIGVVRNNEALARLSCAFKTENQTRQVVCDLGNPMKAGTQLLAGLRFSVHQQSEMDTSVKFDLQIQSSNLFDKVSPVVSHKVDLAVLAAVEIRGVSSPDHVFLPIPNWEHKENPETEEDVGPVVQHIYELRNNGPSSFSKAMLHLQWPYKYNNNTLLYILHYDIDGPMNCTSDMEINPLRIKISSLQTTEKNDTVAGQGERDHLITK
T2 sequence (P06756 891-1048 partner limits assumed): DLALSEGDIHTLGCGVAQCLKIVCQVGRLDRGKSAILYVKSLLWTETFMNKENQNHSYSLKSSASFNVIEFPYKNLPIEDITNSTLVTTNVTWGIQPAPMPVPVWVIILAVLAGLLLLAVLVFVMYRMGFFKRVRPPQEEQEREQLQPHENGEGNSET
T2 sequence (P05106 27-788): as the sequence (P05106 27-788) above
Method: as §1, §2

Compound	INHIBITION @ 250 uM RECEPTOR allBb3 SUBSTRATE FIBRINOGEN (αllbβ3 integrin)	INHIBITION 250 uM RECEPTOR allBb3 SUBSTRATE VITRONECTIN (αllbβ3 integrin)	INHIBITION 250 uM RECEPTOR aVb3 SUBSTRATE FIBRINOGEN (αVβ3 integrin)
Nc1cccc(COC2C(O)C(COCc3ccccc3)OC(O)C2NC(=O)CCC(=O)O)c1 (single isomer, unassigned) [Compound 23]	++ (61% to 80% inhibition at 250 micromolar)	+++ (81% to 100% inhibition at 250 micromolar)	− (0% to 35% inhibition at 250 micromolar)
COC1OC(COCc2ccc(Br)cc2)C(O)C(OCc2cccc(N)c2)C1NC(=O)CCC(=O)O (single isomer, unassigned) [Compound 24]	+ (36% to 60% inhibition at 250 micromolar)	+++ (81% to 100% inhibition at 250 micromolar)	++ (61% to 80% inhibition at 250 micromolar)
COC1OC(COCc2ccc(Br)cc2)C(O)C(OCc2cccc(N)c2)C1NC(=O)CCC(=O)O (single isomer, unassigned) [Compound 25]	+ (36% to 60% inhibition at 250 micromolar)	+++ (81% to 100% inhibition at 250 micromolar)	+++ (81% to 100% inhibition at 250 micromolar)
Nc1cccc(COC2C(O)C(COCc3ccc(Br)cc3)OC(O)C2NC(=O)CCC(=O)O)c1 (single isomer, unassigned) [Compound 26]	+ (36% to 60% inhibition at 250 micromolar)	+++ (81% to 100% inhibition at 250 micromolar)	++ (61% to 80% inhibition at 250 micromolar)
COC1OC(COCC(=O)O)C(O)C(OCc2cccc(N)c2)C1NC(=O)c1ccccc1 (single isomer, unassigned) [Compound 27]	++ (61% to 80% inhibition at 250 micromolar)	+++ (81% to 100% inhibition at 250 micromolar)	+++ (81% to 100% inhibition at 250 micromolar)
COC1OC(COCC(=O)O)C(O)C(OCc2cccc(N)c2)C1NC(=O)c1ccccc1 (single isomer, unassigned) [Compound 28]	+ (36% to 60% inhibition at 250 micromolar)	+++ (81% to 100% inhibition at 250 micromolar)	+++ (81% to 100% inhibition at 250 micromolar)
Nc1cccc(COC2C(O)C(COCC(=O)O)OC(O)C2NC(=O)c2ccccc2)c1 (single isomer, unassigned) [Compound 29]	++ (61% to 80% inhibition at 250 micromolar)	+++ (81% to 100% inhibition at 250 micromolar)	+++ (81% to 100% inhibition at 250 micromolar)
COC1OC(COCc2ccc(C(=O)O)cc2)C(O)C(OCc2cccc(N)c2)C1NC(=O)c1ccc(Cl)cc1 (single isomer, unassigned) [Compound 30]	++ (61% to 80% inhibition at 250 micromolar)	+++ (81% to 100% inhibition at 250 micromolar)	+++ (81% to 100% inhibition at 250 micromolar)
COC1O[C@H](COCc2ccc(C(=O)O)cc2)[C@@H](O)[C@H](OCc2cccc(N)c2)[C@H]1NC(=O)c1ccc(Cl)cc1 (single isomer, unassigned) [Compound 31]	+++ (81% to 100% inhibition at 250 micromolar)	+++ (81% to 100% inhibition at 250 micromolar)	+++ (81% to 100% inhibition at 250 micromolar)
CCOC1O[C@H](COCC(=O)O)[C@@H](O)[C@H](OCc2ccccc2)[C@H]1NC(=O)c1cccc(N)c1 (single isomer, unassigned) [Compound 32]	+ (36% to 60% inhibition at 250 micromolar)	+++ (81% to 100% inhibition at 250 micromolar)	− (0% to 35% inhibition at 250 micromolar)
Nc1cccc(C(=O)N[C@H]2C(O)O[C@H](COCC(=O)O)[C@@H](O)[C@@H]2OCc2ccccc2)c1 (single isomer, unassigned) [Compound 33]	++ (61% to 80% inhibition at 250 micromolar)	− (0% to 35% inhibition at 250 micromolar)	− (0% to 35% inhibition at 250 micromolar)
Nc1cccc(C(=O)N[C@H]2C(O)O[C@H](COCC(=O)O)[C@@H](O)[C@@H]2OCc2ccccc2)c1 (single isomer, unassigned) [Compound 34]	+ (36% to 60% inhibition at 250 micromolar)	+++ (81% to 100% inhibition at 250 micromolar)	+++ (81% to 100% inhibition at 250 micromolar)
CCOC1O[C@H](COCc2ccc(C(=O)O)cc2)[C@@H](O)[C@H](OCc2ccccc2)[C@H]1NC(=O)c1cccc(N)c1 (single isomer, unassigned) [Compound 35]	+ (36% to 60% inhibition at 250 micromolar)	+++ (81% to 100% inhibition at 250 micromolar)	+++ (81% to 100% inhibition at 250 micromolar)
CCOC1O[C@H](COCc2cccc(N)c2)[C@@H](O)[C@H](OCc2ccccc2)[C@H]1NC(=O)c1ccc(C(=O)O)cc1 (single isomer, unassigned) [Compound 36]	+ (36% to 60% inhibition at 250 micromolar)	+++ (81% to 100% inhibition at 250 micromolar)	+++ (81% to 100% inhibition at 250 micromolar)
CCOC1O[C@H](COCc2cccc(N)c2)[C@@H](O)[C@H](OCc2ccccc2)[C@H]1NC(=O)c1ccc(C(=O)O)cc1 (single isomer, unassigned) [Compound 37]	+ (36% to 60% inhibition at 250 micromolar)	+++ (81% to 100% inhibition at 250 micromolar)	+++ (81% to 100% inhibition at 250 micromolar)
CCOC1O[C@H](COCC(=O)O)[C@@H](O)[C@H](OCc2ccc(Br)cc2)[C@H]1NC(=O)c1cccc(N)c1 (single isomer, unassigned) [Compound 38]	++ (61% to 80% inhibition at 250 micromolar)	+++ (81% to 100% inhibition at 250 micromolar)	+++ (81% to 100% inhibition at 250 micromolar)
CCOC1O[C@H](COCC(=O)O)[C@@H](O)[C@H](OCc2ccc(Br)cc2)[C@H]1NC(=O)c1cccc(N)c1 (single isomer, unassigned) [Compound 39]	+ (36% to 60% inhibition at 250 micromolar)	+++ (81% to 100% inhibition at 250 micromolar)	+++ (81% to 100% inhibition at 250 micromolar)
CCOC1O[C@H](COCc2ccc(C(=O)O)cc2)[C@@H](O)[C@H](OCc2ccc(Br)cc2)[C@H]1NC(=O)c1cccc(N)c1 (single isomer, unassigned) [Compound 40]	+++ (81% to 100% inhibition at 250 micromolar)	+++ (81% to 100% inhibition at 250 micromolar)	+++ (81% to 100% inhibition at 250 micromolar)
CCOC1O[C@H](COCc2ccc(C(=O)O)cc2)[C@@H](O)[C@H](OCc2ccc(Br)cc2)[C@H]1NC(=O)c1cccc(N)c1 (single isomer, unassigned) [Compound 41]	+ (36% to 60% inhibition at 250 micromolar)	++ (61% to 80% inhibition at 250 micromolar)	+ (36% to 60% inhibition at 250 micromolar)
Nc1cccc(C(=O)N[C@H]2C(O)O[C@H](COCc3ccc(C(=O)O)cc3)[C@@H](O)[C@@H]2OCc2ccc(Br)cc2)c1 (single isomer, unassigned) [Compound 42]	+ (36% to 60% inhibition at 250 micromolar)	+++ (81% to 100% inhibition at 250 micromolar)	− (0% to 35% inhibition at 250 micromolar)
